This passage reports IC50 results from patent US20240366612A1, “COMPOUNDS AND METHODS FOR MODULATING NUCLEIC ACID SPLICING” (REMIX THERAPEUTICS INC., priority 2021, published 2024).

The subject of experiment [1] is HiBiT-tagged MYB protein in K562 cells. Description: HiBiT protein abundance assay, MYB. In kind it is cell-based, human. The conditions noted are these: HiBiT-modified K562 cells, 24 hours, luminescence. In short, it runs like this:
(§1)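 K562 lines with the endogenous target HiBiT-tagged, seeded in IMDM+1% FBS, got a 10-point 3-fold dilution series (top final 10 μM, DMSO ≤0.25%) for 24 hours at 37° C. Lytic LgBiT luminescence was normalized against unmodified-K562 and DMSO-only controls, and IC50 was interpolated at 50% from a four-parameter logistic fit.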

Experiment [2] deals with HiBiT-tagged HTT protein in K562 cells. Description: HiBiT protein abundance assay, HTT. In kind it is cell-based, human. The conditions noted are these: HiBiT-modified K562 cells, 24 hours, luminescence. In short, it runs like this: as §1
The subject of another experiment is MYB CJ mRNA. The experiment is described as follows: Gene panel canonical junction qPCR assay, MYB. In kind it is cell-based. The conditions noted are these: Homo sapiens, larger gene panel, read-out: MYB IC50 (decrease in CJ mRNA levels). The gist of the method: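 A673 or K562 cells treated 24 h with 11-point 3-fold dilutions (top 10 µM, ≤0.25% DMSO) at 37 °C. Canonical exon-junction mRNA measured by probe-based RT-qPCR, normalized to GAPDH, GUSB or PPIA and DMSO (2^−ΔΔCt), converted to percent response over a fixed ΔCt window; IC50 from 4-parameter fit.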

Experiment [3] concerns HiBiT-tagged Target C protein in K562 cells. The experiment is described as follows: HiBiT protein abundance assay, Target C. The conditions noted are these: HiBiT-modified K562 cells, 24 hours, luminescence. The experiment is classed as cell-based, human. The gist of the method:
as §1

Where a name gives a salt, the structure may show the parent alone. A value given as a limit tells only on which side of the number the result lay.

For `Cc1cn2cc(-n3cnc4nc(N5CCNCC5)sc4c3=O)cc(C(F)(F)F)c2n1` [Compound 229, 6-(2-methyl-8-(trifluoromethyl)imidazo[1,2-a]pyridin-6-yl)-2-(piperazin-1-yl)thiazolo[4,5-d]pyrimidin-7(6H)-one], the IC50 (in experiment [1]; in experiment [2]; with MYB CJ mRNA; in experiment [3]) was above 10000 nM throughout.

With `Cc1cn2cc(-n3cnc4nc(N5CCN(C)CC5)sc4c3=O)cc(C(F)(F)F)c2n1` [Compound 230, 6-(2-methyl-8-(trifluoromethyl)imidazo[1,2-a]pyridin-6-yl)-2-(4-methylpiperazin-1-yl)thiazolo[4,5-d]pyrimidin-7(6H)-one], the IC50 (in experiment [1]; in experiment [2]; with MYB CJ mRNA; in experiment [3]) was above 10000 nM in each case.

As to `Cc1cn2nc(-c3nc4ncn(C5CCNCC5)c(=O)c4s3)cc(C)c2n1` [Compound 231, 2-(2,8-dimethylimidazo[1,2-b]pyridazin-6-yl)-6-(piperidin-4-yl)thiazolo[4,5-d]pyrimidin-7(6H)-one], the IC50 (in experiment [1]; in experiment [2]; in the experiment on MYB CJ mRNA; in experiment [3]) was 100 to 1000 nM in each case.

For `Cc1cn2cc(-c3nc4ncn(C5CCNCC5)c(=O)c4s3)cc(F)c2n1` [Compound 232, 2-(8-fluoro-2-methylimidazo[1,2-a]pyridin-6-yl)-6-(piperidin-4-yl)thiazolo[4,5-d]pyrimidin-7(6H)-one], the IC50 in experiment [1] is 100 to 1000 nM; in experiment [2], below 100 nM; with MYB CJ mRNA it was 100 to 1000 nM; in experiment [3], 100 to 1000 nM.

On to `Cc1cc(-c2nc3ncn(C4CCNCC4)c(=O)c3s2)cc2cn(C)nc12` [Compound 233, 2-(2,7-dimethyl-2H-indazol-5-yl)-6-(piperidin-4-yl)thiazolo[4,5-d]pyrimidin-7(6H)-one], for which the IC50 in experiment [1] was below 100 nM; in experiment [2], below 100 nM; in the experiment with MYB CJ mRNA, 100 to 1000 nM; in experiment [3] it was below 100 nM.

For the compound `Cc1cc(-c2nc3ncn(C4CCN(C)CC4)c(=O)c3s2)cc2cn(C)nc12` [Compound 234, 2-(2,7-dimethyl-2H-indazol-5-yl)-6-(1-methylpiperidin-4-yl)thiazolo[4,5-d]pyrimidin-7(6H)-one], the IC50 in experiment [1] is below 100 nM; in experiment [2], 100 to 1000 nM; in the experiment on MYB CJ mRNA it was 100 to 1000 nM; in experiment [3], 100 to 1000 nM.

In the case of `Cc1cn2cc(-c3cc4ncn(C5CCNCC5)c(=O)c4s3)cc(F)c2n1` [Compound 235, 6-(8-fluoro-2-methylimidazo[1,2-a]pyridin-6-yl)-3-(piperidin-4-yl)thieno[3,2-d]pyrimidin-4(3H)-one], the IC50 (in experiment [1]; in experiment [2]; in the experiment on MYB CJ mRNA; in experiment [3]) was 100 to 1000 nM throughout.

Take `Cc1cc(-c2cc3ncn(C4CCNCC4)c(=O)c3s2)cc2cn(C)nc12` [Compound 236, 6-(2,7-dimethyl-2H-indazol-5-yl)-3-(piperidin-4-yl)thieno[3,2-d]pyrimidin-4(3H)-one]: the IC50 was below 100 nM in experiment [1], below 100 nM in experiment [2], 100 to 1000 nM with MYB CJ mRNA and 100 to 1000 nM in experiment [3].

Turning to `Cc1cc(-c2cc3ncn(C4CCN(C)CC4)c(=O)c3s2)cc2cn(C)nc12` [Compound 237, 6-(2,7-dimethyl-2H-indazol-5-yl)-3-(1-methylpiperidin-4-yl)thieno[3,2-d]pyrimidin-4(3H)-one], the IC50 was below 100 nM in experiment [1], 100 to 1000 nM in experiment [2], 100 to 1000 nM in the experiment with MYB CJ mRNA and 100 to 1000 nM in experiment [3].

As to `Cc1cn2nc(-c3cc4ncn(C5CCNCC5)c(=O)c4s3)cc(C)c2n1` [Compound 238, 6-(2,8-dimethylimidazo[1,2-b]pyridazin-6-yl)-3-(piperidin-4-yl)thieno[3,2-d]pyrimidin-4(3H)-one], the IC50 lay in the range of 100 to 1000 nM in experiment [1], 100 to 1000 nM in experiment [2], 100 to 1000 nM with MYB CJ mRNA and 1000 to 10000 nM in experiment [3].

Turning to `Cc1cn2nc(-c3cc4ncn(C5CCN(C)CC5)c(=O)c4s3)cc(C)c2n1` [Compound 239, 6-(2,8-dimethylimidazo[1,2-b]pyridazin-6-yl)-3-(1-methylpiperidin-4-yl)thieno[3,2-d]pyrimidin-4(3H)-one], the IC50 in experiment [1] was 1000 to 10000 nM; in experiment [2] it was 1000 to 10000 nM; in the experiment on MYB CJ mRNA, 1000 to 10000 nM; in experiment [3], above 10000 nM.

In the case of `Cc1cn2cc(-c3nc4sc(C5CCNCC5)cc4c(=O)[nH]3)cc(F)c2n1` [Compound 250, 2-(8-fluoro-2-methylimidazo[1,2-a]pyridin-6-yl)-6-(piperidin-4-yl)thieno[2,3-d]pyrimidin-4(3H)-one], the IC50 (in experiment [1]; in experiment [2]; with MYB CJ mRNA; in experiment [3]) was 100 to 1000 nM throughout.

Turning to `Cc1nc(-c2nc3ncn(C4CCNCC4)c(=O)c3s2)cc2cn(C)nc12` [Compound 251, 2-(2,7-dimethyl-2H-pyrazolo[3,4-c]pyridin-5-yl)-6-(piperidin-4-yl)thiazolo[4,5-d]pyrimidin-7(6H)-one], the IC50 in experiment [1] was 1000 to 10000 nM; in experiment [2], 1000 to 10000 nM; in the experiment with MYB CJ mRNA, 1000 to 10000 nM; in experiment [3], above 10000 nM.

Take `Cn1cc2cc(-c3nc4ncn(C5CCNCC5)c(=O)c4s3)c(O)cc2n1` [Compound 253, 2-(6-hydroxy-2-methyl-2H-indazol-5-yl)-6-(piperidin-4-yl)thiazolo[4,5-d]pyrimidin-7(6H)-one, hydrochloride]: the IC50 (in experiment [1]; in experiment [2]; in the experiment with MYB CJ mRNA; in experiment [3]) was 1000 to 10000 nM each time.

Regarding `Cc1cn2cc(-c3nc4sc(C5CCN(C)CC5)cc4c(=O)[nH]3)cc(F)c2n1` [Compound 256, 2-(8-fluoro-2-methylimidazo[1,2-a]pyridin-6-yl)-6-(1-methylpiperidin-4-yl)thieno[2,3-d]pyrimidin-4(3H)-one], the IC50 (in experiment [1]; in experiment [2]; with MYB CJ mRNA; in experiment [3]) was above 10000 nM in each case.

Regarding `Cn1cc2cc(-c3cc4ncn(C5CCNCC5)c(=O)c4s3)cc(F)c2n1` [Compound 257], the IC50 (in experiment [1]; in experiment [2]; in the experiment with MYB CJ mRNA; in experiment [3]) was 1000 to 10000 nM throughout.

For `Cn1cc2cc(-c3cc4ncn(C5CCNCC5)c(=O)c4s3)c(F)cc2n1` [Compound 258], the IC50 is 100 to 1000 nM in experiment [1], 100 to 1000 nM in experiment [2], 100 to 1000 nM in the experiment with MYB CJ mRNA and 1000 to 10000 nM in experiment [3].

As for `Cn1cc2cc(-c3cc4ncn(C5CCNCC5)c(=O)c4s3)cc(C#N)c2n1` [Compound 259], the half-maximal inhibitory concentration (IC50) in experiment [1] was in the range of 100 to 1000 nM; in experiment [2], 100 to 1000 nM; in the experiment with MYB CJ mRNA, 100 to 1000 nM; in experiment [3], 1000 to 10000 nM.

For the compound `COc1cc(-c2cc3ncn(C4CCNCC4)c(=O)c3s2)cnn1` [Compound 260], the IC50 (in experiment [1]; in experiment [2]; in the experiment on MYB CJ mRNA; in experiment [3]) was 1000 to 10000 nM in each case.

In the case of `Cc1cn2cc(-c3cc4ncn(C5CCNCC5)c(=O)c4s3)cc(C)c2n1` [Compound 261], the IC50 in experiment [1] is 100 to 1000 nM; in experiment [2], 100 to 1000 nM; in the experiment with MYB CJ mRNA, 100 to 1000 nM; in experiment [3], 1000 to 10000 nM.

With `Cc1cn2nc(-c3cc4ncn(C5CCNCC5)c(=O)c4s3)cc2c(C)n1` [Compound 262], the IC50 (in experiment [1]; in experiment [2]; in the experiment with MYB CJ mRNA; in experiment [3]) was 100 to 1000 nM throughout.

Regarding `COc1cc(-c2cc3ncn(C4CCNCC4)c(=O)c3s2)ccn1` [Compound 263], the IC50 (in experiment [1]; in experiment [2]; in the experiment on MYB CJ mRNA; in experiment [3]) was 1000 to 10000 nM each time.

Regarding `Cc1cn2cc(-c3cc4ncn(C5CCNCC5)c(=O)c4s3)ncc2n1` [Compound 264], the IC50 (in experiment [1]; in experiment [2]; with MYB CJ mRNA; in experiment [3]) was 1000 to 10000 nM each time.

For `Cc1cn2cc(-c3cc4ncn(C5CCN(C)CC5)c(=O)c4s3)cc(F)c2n1` [Compound 265, 6-{8-fluoro-2-methylimidazo[1,2-a]pyridin-6-yl}-3-(1-methylpiperidin-4-yl)thieno[3,2-d]pyrimidin-4-one], the IC50 (in experiment [1]; in experiment [2]; with MYB CJ mRNA; in experiment [3]) was 100 to 1000 nM throughout.

Consider `Cc1cn2nc(-c3nc4sc(N5CCNCC5)nc4c(=O)[nH]3)cc2c(C)n1` [Compound 267], for which the IC50 (in experiment [1]; in experiment [2]; in the experiment on MYB CJ mRNA; in experiment [3]) was 100 to 1000 nM in each case.

For the compound `Cc1cn2nc(-c3nc4sc(N5CCN(C)CC5)nc4c(=O)[nH]3)cc2c(C)n1` [Compound 268], the IC50 (in experiment [1]; in experiment [2]; in the experiment on MYB CJ mRNA; in experiment [3]) was above 10000 nM each time.

As to `Cc1cn2cc(-c3cc4ncn(N5CCNCC5)c(=O)c4s3)cc(F)c2n1` [Compound 269, 6-{8-fluoro-2-methylimidazo[1,2-a]pyridin-6-yl}-3-(piperazin-1-yl)thieno[3,2-d]pyrimidin-4-one], the IC50 (in experiment [1]; in experiment [2]; in the experiment with MYB CJ mRNA; in experiment [3]) was 100 to 1000 nM each time.
